US9492471B2, “Methods of treating a disease or disorder associated with Bruton'S Tyrosine Kinase” (Celgene Avilomics Research, Inc., priority 2013, dated 2016)
Read-outs that look alike come from different tables or passages of the source.

How the values were obtained:
Assay in all cases: HotSpot kinase profiling
Type in all cases: biochemical
[1] = target: T1, RON/MST1R (Homo sapiens, UniProt Q04912)
T1 construct: purchased Reaction Biology Corp
Outline: (§1)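 P81 filtration radiometric readout; 2 h incubation at room temperature; 0.1% phosphoric acid wash; DMSO negative control; % inhibition, mean of replicate runs.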

[2] = target: T2, DLK/MAP3K12 (Homo sapiens, UniProt Q12852)
T2 construct: purchased Reaction Biology Corp
T2 sequence (Q12852 1-859): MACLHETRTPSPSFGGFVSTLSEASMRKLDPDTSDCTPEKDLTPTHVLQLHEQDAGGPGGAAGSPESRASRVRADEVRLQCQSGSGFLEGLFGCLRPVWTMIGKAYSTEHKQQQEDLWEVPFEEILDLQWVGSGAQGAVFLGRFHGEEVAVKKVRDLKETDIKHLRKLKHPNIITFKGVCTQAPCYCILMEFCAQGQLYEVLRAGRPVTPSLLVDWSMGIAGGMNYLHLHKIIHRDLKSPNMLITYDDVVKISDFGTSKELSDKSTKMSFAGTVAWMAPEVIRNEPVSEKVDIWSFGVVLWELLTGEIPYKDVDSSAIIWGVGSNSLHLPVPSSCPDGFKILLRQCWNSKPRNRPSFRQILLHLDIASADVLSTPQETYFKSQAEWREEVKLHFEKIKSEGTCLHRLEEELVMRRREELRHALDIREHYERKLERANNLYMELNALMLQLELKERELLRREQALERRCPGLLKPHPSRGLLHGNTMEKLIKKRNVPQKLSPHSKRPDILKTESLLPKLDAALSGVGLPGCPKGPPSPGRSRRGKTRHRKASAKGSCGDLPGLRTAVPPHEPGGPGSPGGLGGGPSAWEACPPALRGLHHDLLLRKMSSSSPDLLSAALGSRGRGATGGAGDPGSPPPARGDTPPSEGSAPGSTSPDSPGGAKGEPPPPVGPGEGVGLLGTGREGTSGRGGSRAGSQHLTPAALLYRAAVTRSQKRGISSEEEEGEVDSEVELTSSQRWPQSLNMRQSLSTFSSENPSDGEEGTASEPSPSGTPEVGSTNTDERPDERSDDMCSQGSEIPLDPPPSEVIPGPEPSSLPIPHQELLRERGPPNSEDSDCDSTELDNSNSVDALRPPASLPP
Outline: as §1

[3] = target: T3, FGFR1 (Homo sapiens, UniProt P11362)
T3 construct: purchased Reaction Biology Corp
Outline: as §1

[4] = target: T4, MST1/STK4 (Homo sapiens, UniProt Q13043)
T4 construct: purchased Reaction Biology Corp
T4 sequence (Q13043 1-487): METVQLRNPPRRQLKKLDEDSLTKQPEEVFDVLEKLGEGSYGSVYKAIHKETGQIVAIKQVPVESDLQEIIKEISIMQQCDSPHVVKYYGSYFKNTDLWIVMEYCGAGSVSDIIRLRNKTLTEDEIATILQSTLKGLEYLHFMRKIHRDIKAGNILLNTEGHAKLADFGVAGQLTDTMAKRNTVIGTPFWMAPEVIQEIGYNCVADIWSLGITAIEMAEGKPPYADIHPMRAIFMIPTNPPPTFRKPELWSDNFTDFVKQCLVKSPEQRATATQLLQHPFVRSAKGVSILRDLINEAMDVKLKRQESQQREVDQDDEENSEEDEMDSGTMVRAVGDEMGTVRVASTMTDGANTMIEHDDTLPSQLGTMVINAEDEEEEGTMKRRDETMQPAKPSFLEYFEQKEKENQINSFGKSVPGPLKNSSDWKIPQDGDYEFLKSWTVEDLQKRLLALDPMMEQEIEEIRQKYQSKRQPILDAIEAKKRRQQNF
Outline: as §1

[5] = target: T5, CDK7/cyclin H (Homo sapiens, UniProt P50613)
T5 construct: purchased Reaction Biology Corp
Outline: as §1

[6] = target: T6, MLCK/MYLK (Homo sapiens, UniProt Q15746)
T6 construct: purchased Reaction Biology Corp
Outline: as §1

[7] = read-out: % Enzyme Activity (relative to DMSO controls) Run 1
[8] = read-out: % Enzyme Activity (relative to DMSO controls) Run 2

T5 sequence (P50613 whole entry): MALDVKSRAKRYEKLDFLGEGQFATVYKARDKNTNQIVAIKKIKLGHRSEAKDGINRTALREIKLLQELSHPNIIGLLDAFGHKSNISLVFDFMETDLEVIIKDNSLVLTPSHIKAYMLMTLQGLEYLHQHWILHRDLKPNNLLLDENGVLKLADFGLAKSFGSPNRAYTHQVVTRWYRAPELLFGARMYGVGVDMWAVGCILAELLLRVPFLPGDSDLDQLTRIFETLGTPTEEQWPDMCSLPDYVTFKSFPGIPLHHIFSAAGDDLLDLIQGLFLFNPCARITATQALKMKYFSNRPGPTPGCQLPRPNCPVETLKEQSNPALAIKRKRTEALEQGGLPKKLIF
T5 sequence (P51946 whole entry partner): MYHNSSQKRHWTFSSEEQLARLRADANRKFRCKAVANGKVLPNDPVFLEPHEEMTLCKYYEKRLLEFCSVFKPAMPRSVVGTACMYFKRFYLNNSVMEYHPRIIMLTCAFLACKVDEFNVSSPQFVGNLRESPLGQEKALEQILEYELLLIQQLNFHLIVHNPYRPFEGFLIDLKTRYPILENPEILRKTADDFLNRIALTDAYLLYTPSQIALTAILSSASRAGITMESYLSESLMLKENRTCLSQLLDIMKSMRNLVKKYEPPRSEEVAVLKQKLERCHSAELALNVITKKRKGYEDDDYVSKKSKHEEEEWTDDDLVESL
T5 sequence (P51948 whole entry partner): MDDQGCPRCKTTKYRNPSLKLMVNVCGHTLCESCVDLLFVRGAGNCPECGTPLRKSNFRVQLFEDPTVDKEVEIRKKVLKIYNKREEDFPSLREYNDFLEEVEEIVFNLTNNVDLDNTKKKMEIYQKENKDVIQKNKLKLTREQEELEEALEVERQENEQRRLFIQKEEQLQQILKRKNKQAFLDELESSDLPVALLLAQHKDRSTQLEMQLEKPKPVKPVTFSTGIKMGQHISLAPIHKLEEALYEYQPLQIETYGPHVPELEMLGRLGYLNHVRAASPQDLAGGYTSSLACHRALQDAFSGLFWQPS
T3 sequence (P11362 22-822): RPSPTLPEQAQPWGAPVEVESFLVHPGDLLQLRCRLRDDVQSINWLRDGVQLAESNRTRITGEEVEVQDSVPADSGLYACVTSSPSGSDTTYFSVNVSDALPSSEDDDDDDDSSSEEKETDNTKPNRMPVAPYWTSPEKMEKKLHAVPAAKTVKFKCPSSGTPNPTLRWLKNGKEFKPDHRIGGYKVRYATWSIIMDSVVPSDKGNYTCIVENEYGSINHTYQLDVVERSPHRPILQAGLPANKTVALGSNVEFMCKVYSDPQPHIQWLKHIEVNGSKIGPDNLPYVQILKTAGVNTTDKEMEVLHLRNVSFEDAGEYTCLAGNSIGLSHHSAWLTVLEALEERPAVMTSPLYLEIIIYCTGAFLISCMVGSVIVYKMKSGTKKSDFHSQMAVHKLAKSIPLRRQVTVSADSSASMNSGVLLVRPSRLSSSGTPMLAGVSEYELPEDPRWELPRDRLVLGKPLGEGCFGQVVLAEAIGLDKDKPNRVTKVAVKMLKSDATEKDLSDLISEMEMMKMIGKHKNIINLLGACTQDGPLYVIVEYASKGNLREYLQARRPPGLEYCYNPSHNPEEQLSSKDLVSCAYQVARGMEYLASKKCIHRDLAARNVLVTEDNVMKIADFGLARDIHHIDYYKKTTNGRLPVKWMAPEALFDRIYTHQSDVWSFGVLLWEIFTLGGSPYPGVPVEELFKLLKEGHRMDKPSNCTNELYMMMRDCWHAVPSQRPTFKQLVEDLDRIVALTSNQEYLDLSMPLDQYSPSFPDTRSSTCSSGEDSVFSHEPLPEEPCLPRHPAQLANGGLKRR
T1 sequence (Q04912 25-1400): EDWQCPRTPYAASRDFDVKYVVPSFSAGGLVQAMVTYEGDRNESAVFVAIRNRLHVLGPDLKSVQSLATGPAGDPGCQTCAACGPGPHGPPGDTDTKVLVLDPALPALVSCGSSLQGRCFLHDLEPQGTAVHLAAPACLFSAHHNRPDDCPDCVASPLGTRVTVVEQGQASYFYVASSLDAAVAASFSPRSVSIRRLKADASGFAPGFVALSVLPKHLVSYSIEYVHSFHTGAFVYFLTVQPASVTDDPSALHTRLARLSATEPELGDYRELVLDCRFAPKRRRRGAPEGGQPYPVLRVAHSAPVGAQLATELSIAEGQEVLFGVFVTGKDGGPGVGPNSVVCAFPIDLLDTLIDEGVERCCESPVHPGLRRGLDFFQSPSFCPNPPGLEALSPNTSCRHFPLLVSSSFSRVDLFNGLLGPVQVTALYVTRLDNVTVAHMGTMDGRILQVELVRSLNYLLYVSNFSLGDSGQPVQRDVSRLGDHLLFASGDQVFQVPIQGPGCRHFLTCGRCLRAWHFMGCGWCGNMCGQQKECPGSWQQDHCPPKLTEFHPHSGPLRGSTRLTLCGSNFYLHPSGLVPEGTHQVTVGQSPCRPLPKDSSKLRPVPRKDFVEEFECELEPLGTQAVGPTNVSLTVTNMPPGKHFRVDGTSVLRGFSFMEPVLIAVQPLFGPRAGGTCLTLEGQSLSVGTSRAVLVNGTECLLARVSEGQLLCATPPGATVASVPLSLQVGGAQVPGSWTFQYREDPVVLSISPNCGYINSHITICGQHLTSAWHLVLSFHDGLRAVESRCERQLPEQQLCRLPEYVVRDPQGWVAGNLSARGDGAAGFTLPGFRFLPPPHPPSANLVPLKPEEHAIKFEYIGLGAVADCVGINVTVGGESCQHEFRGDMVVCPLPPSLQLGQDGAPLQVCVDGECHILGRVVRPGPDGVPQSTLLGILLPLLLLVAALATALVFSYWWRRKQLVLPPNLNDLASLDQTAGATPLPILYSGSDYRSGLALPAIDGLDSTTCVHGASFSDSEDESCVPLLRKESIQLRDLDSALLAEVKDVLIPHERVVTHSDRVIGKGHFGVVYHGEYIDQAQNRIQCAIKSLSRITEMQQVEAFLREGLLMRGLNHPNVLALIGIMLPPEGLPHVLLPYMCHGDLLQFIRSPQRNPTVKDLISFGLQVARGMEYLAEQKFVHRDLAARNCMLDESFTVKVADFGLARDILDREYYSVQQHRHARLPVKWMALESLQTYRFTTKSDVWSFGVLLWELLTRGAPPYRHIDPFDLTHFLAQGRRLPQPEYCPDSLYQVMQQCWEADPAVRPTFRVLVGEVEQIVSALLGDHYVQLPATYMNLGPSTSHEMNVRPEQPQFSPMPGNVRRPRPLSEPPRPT

Compound: C=CC(=O)Nc1cccc(Nc2nc(Nc3ccc(OCCOC)c(F)c3)ncc2F)c1 [Compound 2]
- inhibition at 3 µM [1]: -2.24%
- remaining activity at 3 µM [1, 7]: 103%
- remaining activity at 3 µM [1, 8]: 101%
- inhibition at 3 µM [2]: 22.8%
- remaining activity at 3 µM [2, 7]: 74.2%
- remaining activity at 3 µM [2, 8]: 80.2%
- inhibition at 3 µM [3]: 59.7%
- remaining activity at 3 µM [3, 7]: 41.4%
- remaining activity at 3 µM [3, 8]: 39.3%
- inhibition at 3 µM [4]: 30.6%
- remaining activity at 3 µM [4, 7]: 70.2%
- remaining activity at 3 µM [4, 8]: 68.7%
- inhibition at 3 µM [5]: 2.36%
- remaining activity at 3 µM [5, 7]: 98.1%
- remaining activity at 3 µM [5, 8]: 97.2%
- inhibition at 3 µM [6]: 4.59%
- remaining activity at 3 µM [6, 7]: 95.6%
- remaining activity at 3 µM [6, 8]: 95.2%
